Source: the CheMixHub viscosity set

Assay: xn = mol fraction of the nth substance listed

CCOCCOCCOCCO + ClC=C(Cl)Cl
298.15 K, 101.33 kPa
Settings | viscosity [mPa·s]
x1 = 0.0053 | 0.54
x1 = 0.0167 | 0.565
x1 = 0.026 | 0.587
x1 = 0.0395 | 0.618
x1 = 0.0528 | 0.651
x1 = 0.0728 | 0.707
x1 = 0.1054 | 0.809
x1 = 0.1458 | 0.947
x1 = 0.1858 | 1.103
x1 = 0.2345 | 1.326
x1 = 0.2866 | 1.587
x1 = 0.3318 | 1.832
x1 = 0.3679 | 2.048
x1 = 0.4108 | 2.323
x1 = 0.447 | 2.559
x1 = 0.4818 | 2.796
x1 = 0.523 | 3.087
x1 = 0.5639 | 3.396
x1 = 0.6278 | 3.88
x1 = 0.6904 | 4.378
x1 = 0.7278 | 4.683
x1 = 0.7721 | 5.051
x1 = 0.8271 | 5.521
x1 = 0.8733 | 5.952
x1 = 0.9136 | 6.273
x1 = 0.9317 | 6.46
x1 = 0.9672 | 6.773
x2 = 0.0194 | 6.891

N#Cc1ccccc1 + c1ccccc1
Settings | viscosity [mPa·s]
298.15 K, 101 kPa, x1 = 0.2 | 0.688
298.15 K, 101 kPa, x2 = 0.1681 | 1.098
298.15 K, 101 kPa, x2 = 0.3126 | 0.9985
298.15 K, 101 kPa, x2 = 0.4381 | 0.9214
298.15 K, 101 kPa, x2 = 0.5481 | 0.8456
298.15 K, 101 kPa, x2 = 0.6453 | 0.7942
298.15 K, 101 kPa, x2 = 0.7318 | 0.7145
298.15 K, 101 kPa, x2 = 0.8093 | 0.6845
298.15 K, 101 kPa, x2 = 0.8792 | 0.6157
298.15 K, 101 kPa, x2 = 0.9423 | 0.5987
303.15 K, 101 kPa, x2 = 0.1133 | 1.013
303.15 K, 101 kPa, x2 = 0.1681 | 0.9758
303.15 K, 101 kPa, x2 = 0.2233 | 0.932
303.15 K, 101 kPa, x2 = 0.3126 | 0.9251
303.15 K, 101 kPa, x2 = 0.3302 | 0.866
303.15 K, 101 kPa, x2 = 0.434 | 0.812
303.15 K, 101 kPa, x2 = 0.4381 | 0.8542
303.15 K, 101 kPa, x2 = 0.5349 | 0.766
303.15 K, 101 kPa, x2 = 0.5481 | 0.8025
303.15 K, 101 kPa, x2 = 0.633 | 0.7225
303.15 K, 101 kPa, x2 = 0.6453 | 0.7256
303.15 K, 101 kPa, x2 = 0.7285 | 0.68
303.15 K, 101 kPa, x2 = 0.7318 | 0.6953
303.15 K, 101 kPa, x2 = 0.8093 | 0.6245
303.15 K, 101 kPa, x2 = 0.8214 | 0.6395
303.15 K, 101 kPa, x2 = 0.8792 | 0.5946
303.15 K, 101 kPa, x2 = 0.9119 | 0.5996
303.15 K, 101 kPa, x2 = 0.9423 | 0.5742
303.15 K, 101.32 kPa, x2 = 0.1527 | 1.001
303.15 K, 101.32 kPa, x2 = 0.3165 | 0.902
303.15 K, 101.32 kPa, x2 = 0.4174 | 0.831
303.15 K, 101.32 kPa, x2 = 0.5485 | 0.765
303.15 K, 101.32 kPa, x2 = 0.6569 | 0.715
303.15 K, 101.32 kPa, x2 = 0.7859 | 0.659
303.15 K, 101.32 kPa, x2 = 0.9145 | 0.607
308.15 K, 101 kPa, x1 = 0.2 | 0.605
308.15 K, 101 kPa, x2 = 0.1681 | 0.9852
308.15 K, 101 kPa, x2 = 0.3126 | 0.9457
308.15 K, 101 kPa, x2 = 0.4381 | 0.8352
308.15 K, 101 kPa, x2 = 0.5481 | 0.7648
308.15 K, 101 kPa, x2 = 0.6453 | 0.7054
308.15 K, 101 kPa, x2 = 0.7318 | 0.6582
308.15 K, 101 kPa, x2 = 0.8093 | 0.6214
308.15 K, 101 kPa, x2 = 0.8792 | 0.5743
308.15 K, 101 kPa, x2 = 0.9423 | 0.5621
313.15 K, 101 kPa, x2 = 0.1681 | 0.9756
313.15 K, 101 kPa, x2 = 0.3126 | 0.9143
313.15 K, 101 kPa, x2 = 0.4381 | 0.8215
313.15 K, 101 kPa, x2 = 0.5481 | 0.7236
313.15 K, 101 kPa, x2 = 0.6453 | 0.6974
313.15 K, 101 kPa, x2 = 0.7318 | 0.6318
313.15 K, 101 kPa, x2 = 0.8093 | 0.5845
313.15 K, 101 kPa, x2 = 0.8792 | 0.5413
313.15 K, 101 kPa, x2 = 0.9423 | 0.5128
318.15 K, 101 kPa, x1 = 0.2 | 0.532
323.15 K, 101 kPa, x1 = 0.2 | 0.498

CCC(=O)OC + ClC(Cl)C(Cl)Cl
viscosity [mPa·s], 101.3 kPa
Settings | 308.15 K | 318.15 K
x1 = 0.0501 | 1.352 | 1.214
x1 = 0.1021 | 1.296 | 1.149
x1 = 0.2031 | 1.186 | 1.032
x1 = 0.302 | 1.078 | 0.927
x1 = 0.3398 | 1.037 | 0.889
x1 = 0.5038 | 0.865 | 0.741
x1 = 0.6012 | 0.769 | 0.664
x1 = 0.6946 | 0.681 | 0.597
x1 = 0.7988 | 0.591 | 0.528
x1 = 0.9016 | 0.509 | 0.468
x1 = 0.9481 | 0.474 | 0.443

CCCOCCO + O=[N+]([O-])c1ccccc1
298.15 K, 101 kPa
Settings | viscosity [mPa·s]
x2 = 0.0509 | 2.336
x2 = 0.1085 | 2.326
x2 = 0.2052 | 2.316
x2 = 0.3224 | 2.304
x2 = 0.3978 | 2.292
x2 = 0.4501 | 2.279
x2 = 0.5017 | 2.262
x2 = 0.5513 | 2.241
x2 = 0.6026 | 2.216
x2 = 0.6998 | 2.154
x2 = 0.8045 | 2.066
x2 = 0.9028 | 1.957
x2 = 0.9525 | 1.888

CCOCCOCCOCCO + ClC(Cl)=C(Cl)Cl
298.15 K, 101.33 kPa
Settings | viscosity [mPa·s]
x1 = 0.0072 | 0.863
x1 = 0.0185 | 0.892
x1 = 0.0339 | 0.931
x1 = 0.0489 | 0.969
x1 = 0.0609 | 1.008
x1 = 0.0867 | 1.081
x1 = 0.1081 | 1.154
x1 = 0.1487 | 1.29
x1 = 0.1926 | 1.459
x1 = 0.2354 | 1.634
x1 = 0.2903 | 1.893
x1 = 0.3204 | 2.052
x1 = 0.3495 | 2.207
x1 = 0.3887 | 2.429
x1 = 0.4239 | 2.631
x1 = 0.4633 | 2.863
x1 = 0.5019 | 3.105
x1 = 0.5442 | 3.384
x1 = 0.5861 | 3.665
x1 = 0.6345 | 4.013
x1 = 0.6893 | 4.413
x1 = 0.7441 | 4.852
x1 = 0.8008 | 5.303
x1 = 0.8471 | 5.684
x1 = 0.9061 | 6.191
x1 = 0.9387 | 6.486
x1 = 0.9502 | 6.589
x1 = 0.9795 | 6.871

CCC(=O)OC + Clc1ccccc1
viscosity [mPa·s], 101.3 kPa
Settings | 308.15 K | 318.15 K
x1 = 0.0485 | 0.646 | 0.598
x1 = 0.0993 | 0.635 | 0.589
x1 = 0.2038 | 0.612 | 0.57
x1 = 0.2614 | 0.599 | 0.559
x1 = 0.4087 | 0.567 | 0.531
x1 = 0.4556 | 0.556 | 0.522
x1 = 0.6041 | 0.523 | 0.493
x1 = 0.7011 | 0.503 | 0.475
x1 = 0.8064 | 0.479 | 0.454
x1 = 0.9054 | 0.457 | 0.434
x1 = 0.9486 | 0.448 | 0.426

CCCCn1cc[n+](C)c1.[Cl-] + CN(C)C=O
101 kPa
Settings | viscosity [mPa·s]
293.15 K, x2 = 0.5025 | 76.7
293.15 K, x2 = 0.9 | 3.41
298.15 K, x2 = 0.501 | 64.4
303.15 K, x2 = 0.7005 | 9.55
308.15 K, x1 = 0.1056 | 1.665
308.15 K, x1 = 0.1399 | 2.135
308.15 K, x2 = 0.7 | 7.76

C[N+](C)(C)C.NCC(=O)[O-] + OCC(O)CO
303 K, 101 kPa
Settings | viscosity [mPa·s]
x1 = 0.065 | 397.5
x1 = 0.13 | 390.8
x1 = 0.21 | 380.1
x1 = 0.29 | 369.3
x1 = 0.48 | 346.5
x1 = 0.71 | 327.7

N#Cc1ccccc1 + CO
Settings | viscosity [mPa·s]
303 K, 100 kPa, x1 = 0.0991 | 0.6312
303 K, 100 kPa, x1 = 0.2405 | 0.7232
303 K, 100 kPa, x1 = 0.3585 | 0.7886
303 K, 100 kPa, x1 = 0.4974 | 0.8399
303 K, 100 kPa, x1 = 0.6272 | 0.9121
303 K, 100 kPa, x1 = 0.7094 | 0.9522
303 K, 100 kPa, x1 = 0.8023 | 0.9912
303 K, 100 kPa, x1 = 0.897 | 1.035
303.15 K, 101.33 kPa, x1 = 0.0854 | 0.562
303.15 K, 101.33 kPa, x1 = 0.1569 | 0.603
303.15 K, 101.33 kPa, x1 = 0.2408 | 0.652
303.15 K, 101.33 kPa, x1 = 0.4349 | 0.763
303.15 K, 101.33 kPa, x1 = 0.5335 | 0.82
303.15 K, 101.33 kPa, x1 = 0.6304 | 0.875
303.15 K, 101.33 kPa, x1 = 0.7155 | 0.926
303.15 K, 101.33 kPa, x1 = 0.8439 | 1.011
303.15 K, 101.33 kPa, x1 = 0.9059 | 1.061
308 K, 100 kPa, x1 = 0.0991 | 0.5712
308 K, 100 kPa, x1 = 0.2405 | 0.6523
308 K, 100 kPa, x1 = 0.3585 | 0.7123
308 K, 100 kPa, x1 = 0.4974 | 0.7652
308 K, 100 kPa, x1 = 0.6272 | 0.8012
308 K, 100 kPa, x1 = 0.7094 | 0.8307
308 K, 100 kPa, x1 = 0.8023 | 0.8716
308 K, 100 kPa, x1 = 0.897 | 0.9146
308.15 K, 101.33 kPa, x1 = 0.0854 | 0.525
308.15 K, 101.33 kPa, x1 = 0.1569 | 0.562
308.15 K, 101.33 kPa, x1 = 0.2408 | 0.608
308.15 K, 101.33 kPa, x1 = 0.4349 | 0.709
308.15 K, 101.33 kPa, x1 = 0.5335 | 0.761
308.15 K, 101.33 kPa, x1 = 0.6304 | 0.811
308.15 K, 101.33 kPa, x1 = 0.7155 | 0.859
308.15 K, 101.33 kPa, x1 = 0.8439 | 0.938
308.15 K, 101.33 kPa, x1 = 0.9059 | 0.985
313 K, 100 kPa, x1 = 0.0991 | 0.5056
313 K, 100 kPa, x1 = 0.2405 | 0.5595
313 K, 100 kPa, x1 = 0.3585 | 0.6235
313 K, 100 kPa, x1 = 0.4974 | 0.6856
313 K, 100 kPa, x1 = 0.6272 | 0.7325
313 K, 100 kPa, x1 = 0.7094 | 0.7731
313 K, 100 kPa, x1 = 0.8023 | 0.8134
313 K, 100 kPa, x1 = 0.897 | 0.8658
